# Results published in the supplement of paper PMC10307832.
# Experiments:
# Experiment in all cases: relative viability (nuclei count vs DMSO), 5 days (fraction); higher = more cells survive
# [1] = compound: OCc1c[nH]c2ccccc12 [Indole-3-carbinol] + Nc1nc2[nH]cc(CCc3ccc(C(=O)N[C@@H](CCC(=O)O)C(=O)O)cc3)c2c(=O)[nH]1 [Pemetrexed] (partner 0.2 µM)
# Procedure, shortened: (§1)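 Nuclei were stained with Hoechst during a one-step fixation (final 0.05% Triton X-100, 1% formaldehyde, 1 ug/ml Hoechst) carried out 5 days after dosing, then counted on 4× images. The cells, lung cancer lines in 1536-well plates, had been dosed by pin tool the day after seeding with one drug alone or a fixed anchor-drug dose plus five library-drug doses (not always all listed) in √10 steps. Relative viability is the nuclei count in treated wells divided by that in vehicle wells, and each value is the median of duplicate plates.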
# [2] = compound: OCc1c[nH]c2ccccc12 [Indole-3-carbinol] + COc1cccc2cc(-c3nc([C@H]4CC[C@H](C(=O)O)CC4)n4ncnc(N)c34)[nH]c12 [OSI-027] (partner 0.5 µM)
# Procedure, shortened: as §1
# [3] = compound: OCc1c[nH]c2ccccc12 [Indole-3-carbinol] + Cc1cc(Nc2cc(N3CCN(C)CC3)nc(Sc3ccc(NC(=O)C4CC4)cc3)n2)n[nH]1 [Tozasertib] (partner 0.1 µM)
# Procedure, shortened: as §1
# [4] = compound: OCc1c[nH]c2ccccc12 [Indole-3-carbinol] + CC1(C)CCC(c2ccc(Cl)cc2)=C(CN2CCN(c3ccc(C(=O)NS(=O)(=O)c4ccc(N[C@H](CCN5CCOCC5)CSc5ccccc5)c(S(=O)(=O)C(F)(F)F)c4)cc3)CC2)C1 [Navitoclax] (partner 0.5 µM)
# Procedure, shortened: as §1
# [5] = compound: OCc1c[nH]c2ccccc12 [Indole-3-carbinol] + COc1cc2c(Oc3ccc(NC(=O)C4(C(=O)Nc5ccc(F)cc5)CC4)cc3F)ccnc2cc1OCCCN1CCOCC1 [Foretinib] (partner 0.25 µM)
# Procedure, shortened: as §1
Cell Line,relative viability ([1]; first compound 0.253 µM),relative viability ([1]; first compound 0.8 µM),relative viability ([1]; first compound 2.53 µM),relative viability ([1]; first compound 8 µM),relative viability ([2]; first compound 0.253 µM),relative viability ([2]; first compound 0.8 µM),relative viability ([2]; first compound 2.53 µM),relative viability ([2]; first compound 8 µM),relative viability ([3]; first compound 0.253 µM),relative viability ([3]; first compound 0.8 µM),relative viability ([3]; first compound 2.53 µM),relative viability ([3]; first compound 8 µM),relative viability ([4]; first compound 0.253 µM),relative viability ([4]; first compound 0.8 µM),relative viability ([4]; first compound 2.53 µM),relative viability ([4]; first compound 8 µM),relative viability ([5]; first compound 0.253 µM),relative viability ([5]; first compound 0.8 µM),relative viability ([5]; first compound 2.53 µM),relative viability ([5]; first compound 8 µM)
NCI-H1793,0.934,0.773,1.03,0.761,0.233,0.251,0.268,0.31,0.332,0.389,0.339,0.395,0.423,0.402,0.508,0.393,0.728,0.78,0.685,0.656
NCI-H1915,0.466,0.527,0.513,0.511,0.571,0.611,0.623,0.563,0.409,0.459,0.449,0.464,0.753,0.787,0.768,0.762,1.03,1.08,1.06,1.01
NCI-H1944,0.663,0.539,0.649,0.641,0.375,0.378,0.369,0.363,0.245,0.241,0.264,0.246,1.13,1.01,1.11,1.03,0.876,0.775,0.846,0.77
NCI-H1975,0.288,0.294,0.293,0.311,0.589,0.808,0.696,0.743,0.651,1.03,0.797,0.88,1.14,1.27,1.11,1.08,0.888,0.977,1.01,0.873
NCI-H1993,0.59,0.69,0.548,0.567,0.513,0.516,0.63,0.468,0.614,0.629,0.579,0.562,0.958,1.1,0.89,1.01,0.716,0.899,0.763,0.846
NCI-H2009,1.03,1.07,1.07,1.06,0.572,0.677,0.649,0.604,0.691,0.862,0.737,0.739,1.16,1.2,1.18,1.02,1.18,1.13,1.21,1.17
NCI-H2023,0.245,0.269,0.252,0.258,0.406,0.405,0.438,0.398,0.256,0.355,0.366,0.362,1.01,1.05,0.977,0.954,0.978,0.971,0.822,0.916
NCI-H2085,0.965,0.927,0.932,0.758,0.76,0.884,0.747,0.684,0.848,0.914,0.887,0.79,1.1,1.02,1.15,1.05,0.781,1.11,0.879,0.865
NCI-H2087,0.706,0.703,0.705,0.63,0.435,0.644,0.571,0.513,0.214,0.294,0.283,0.296,1.04,1.22,1.02,0.967,1.08,1.47,1.18,1.13
NCI-H2126,0.664,0.746,0.624,0.651,0.706,0.745,0.65,0.791,0.849,0.876,0.793,0.866,0.824,0.872,0.865,0.83,1.05,1.23,1.25,1.06
NCI-H2170,0.286,0.24,0.292,0.273,0.702,0.815,0.749,0.671,0.703,0.712,0.79,0.717,0.577,0.766,0.682,0.607,1.04,0.861,0.815,0.943
NCI-H2228,0.368,0.335,0.334,0.344,0.477,0.724,0.597,0.651,0.208,0.303,0.254,0.265,0.845,1.06,0.91,0.674,0.945,0.897,0.984,0.935
NCI-H2347,0.425,0.415,0.437,0.41,0.429,0.374,0.287,0.364,0.614,0.54,0.571,0.538,0.765,0.782,0.814,0.699,0.743,–,1.21,0.931
NCI-H2405,1.15,1.04,0.972,1.03,0.617,0.676,0.633,0.656,0.751,0.806,0.758,0.776,1.06,0.563,0.964,0.837,1.07,1.07,1.04,0.997
NCI-H3122,0.195,0.21,0.203,0.203,0.967,1.08,1.02,0.948,0.398,0.383,0.483,0.372,1.04,1.01,1.02,1.01,0.972,0.962,0.999,0.961
PC-3 [JPC-3],1.17,1.16,0.958,1.15,0.714,0.741,0.704,0.745,0.873,0.981,0.879,0.866,0.8,0.804,0.823,0.783,1.07,1.05,1.02,0.967
